From PubChem BioAssay (NCI)
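Cells were grown in 96-well plates and exposed to each compound for 48 hours at five concentrations; endpoints were interpolated linearly between bracketing concentrations, or set to the highest concentration if not reached. The concentration for 50% growth inhibition is given as GI50. TGI: concentration producing complete growth inhibition.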

How the values were obtained:
Experiment in all cases: inhibition of tumour cell growth, NCI panel, 48 h
[1] = tested on: MALME-3M melanoma
[2] = tested on: OVCAR-5 ovarian
[3] = tested on: HCC-2998 colon
[4] = tested on: MDA-N
[5] = tested on: IGROV1 ovarian
[6] = tested on: A498 renal
[7] = tested on: EKVX NSCLC
[8] = tested on: MOLT-4 leukemia
[9] = tested on: SR leukemia
[10] = tested on: UACC-62 melanoma
[11] = tested on: SW-620 colon
[12] = tested on: COLO 205 colon
[13] = tested on: UACC-257 melanoma
[14] = tested on: SNB-75 CNS
[15] = tested on: HOP-92 NSCLC
[16] = tested on: NCI-H522 lung
[17] = tested on: DU-145 prostate
[18] = tested on: SN12C renal

Row | SMILES | TGI [1] [µM] | TGI [2] [µM] | TGI [3] [µM] | TGI [4] [µM] | TGI [5] [µM] | TGI [6] [µM] | TGI [7] [µM] | TGI [8] [µM] | TGI [9] [µM] | TGI [10] [µM] | TGI [11] [µM] | TGI [12] [µM] | TGI [13] [µM] | TGI [14] [µM] | TGI [15] [µM] | TGI [16] [µM] | TGI [17] [µM] | TGI [18] [µM] | GI50 [17] [µM] | GI50 [18] [µM]
1 | COC(=O)/C=C(/C=C1/C(C#N)=C(N)N(c2ccc(Cl)cc2)C1(C)/C(=C/C(=O)OC)C(=O)OC)C(=O)OC (stereo not drawn) | > 100 | > 100 | > 100 | > 100 | > 100 | > 100 | > 100 | > 100 | > 100 | > 100 | > 100 | > 100 | > 100 | 76 | 88.6 | > 100 | > 100 | > 100 | – | –
2 | O=c1[nH]nc(-c2ccccc2)n1/N=C/c1ccc([N+](=O)[O-])cc1 | > 100 | > 100 | > 83.5 | > 100 | > 100 | 49.7 | > 100 | > 100 | > 100 | > 100 | > 100 | > 100 | > 100 | 34.9 | 32 | > 100 | > 100 | > 100 | – | –
3 | Cc1cc2cc3c(cc2c(-c2ccc([N+](=O)[O-])cc2)n1)OCO3 | > 100 | > 100 | > 100 | > 100 | 54.9 | > 100 | > 100 | > 100 | > 100 | 67.2 | > 100 | > 100 | > 100 | 58.4 | 56.8 | 40.6 | > 100 | > 100 | – | –
4 | CC(=N)OC1CC2CCC1(C)C2(C)C (stereo not drawn) | > 100 | > 100 | > 100 | > 100 | > 100 | > 100 | > 100 | > 100 | > 100 | > 100 | > 100 | > 100 | > 100 | > 100 | > 100 | > 100 | > 100 | > 100 | – | –
5 | COc1cc2ncnc(Nc3cccc(Cl)c3)c2cc1OC | 19.8 | 47.2 | 54.3 | 42.6 | 10.3 | 9.84 | 15.7 | 54.2 | 24.1 | 22 | 45 | > 70.5 | 37.4 | 13.4 | 38.9 | 18.4 | 38.3 | 45.8 | – | –
6 | Clc1ccccc1-c1nc2ccc(C34CC5CC(CC(C5)C3)C4)cc2[nH]1 | 98.5 | 54 | > 100 | > 100 | 50.4 | 70 | > 100 | > 100 | 40.5 | 27.1 | > 100 | > 100 | > 100 | 21.6 | 27.1 | 43.1 | > 100 | 88.5 | – | –
7 | Cc1cc2c(cc1C(=O)CCC(=O)O)CC1(C2)Cc2cc(C)c(C(=O)CCC(=O)O)cc2C1 | > 100 | > 100 | > 100 | > 100 | > 100 | > 100 | > 100 | > 100 | > 100 | – | > 100 | > 100 | > 100 | > 100 | > 100 | > 100 | > 100 | > 100 | – | –
8 | Nc1nc(Cl)c(CO)c(NCC2(CO)CC(CCc3ccccc3)C2)n1 (stereo not drawn) | 42.5 | > 100 | > 100 | > 100 | – | > 100 | > 100 | 14.7 | > 100 | – | 54.2 | > 100 | 32.4 | 51.2 | 73.1 | 86.3 | > 100 | > 100 | – | –
9 | Cc1c(C)c(C)n(C2OC(CO)C(O)C(O)C2O)c(=S)c1C#N (stereo not drawn) | > 100 | > 100 | > 100 | > 100 | > 100 | > 100 | > 100 | > 100 | > 100 | > 100 | > 100 | > 100 | > 100 | > 100 | > 100 | > 100 | > 100 | > 100 | – | –
10 | COc1nc(N=P(c2ccccc2)(c2ccccc2)c2ccccc2)cc(=O)[nH]1 | > 100 | > 100 | > 100 | > 100 | > 100 | > 100 | > 100 | > 100 | > 100 | > 100 | > 100 | > 100 | > 100 | > 100 | > 100 | > 100 | > 100 | > 100 | – | –
11 | CN(C)/N=C(/CC(O)(C(F)(F)F)C(F)(F)F)c1ccc([N+](=O)[O-])cc1 | > 100 | > 100 | > 100 | > 100 | > 100 | > 100 | > 100 | > 100 | > 100 | > 100 | > 100 | > 100 | > 100 | > 100 | > 100 | > 100 | > 100 | > 100 | – | –
12 | c1ccc(-c2nc3ccccc3n3c(CN4CCCCC4)nnc23)cc1 | > 100 | > 100 | > 100 | > 100 | > 100 | > 100 | > 100 | > 100 | > 100 | > 100 | > 100 | > 100 | > 100 | 40.7 | > 100 | > 100 | > 100 | > 100 | – | –
13 | CCCCCCCCCCCCN(CC(O)C(O)C(OC1OC(CO)C(O)C(O)C1O)C(O)CO)C(=O)CCCCCCCCCCC (stereo not drawn) | 36 | > 100 | 32.6 | 38.2 | 35.8 | 41.8 | 34.4 | 50.1 | 57.8 | 38.8 | 33.6 | 35.3 | 36.6 | 35 | 39.5 | 52.9 | 35.8 | 45.4 | – | –
14 | N#CC12CNCC1CN=N2 (stereo not drawn) | > 100 | > 100 | > 100 | > 100 | > 100 | > 100 | > 100 | > 100 | > 100 | > 100 | > 100 | > 100 | > 100 | > 100 | > 100 | > 100 | > 100 | > 100 | – | –
15 | N#Cc1c(=O)n(-c2ccccc2)c(O)c2c(N)n[nH]c12 | > 100 | > 100 | > 100 | > 100 | > 100 | > 100 | > 100 | > 100 | > 100 | > 100 | > 100 | > 100 | > 100 | > 100 | > 100 | > 100 | > 100 | > 100 | – | –
16 | O=c1[nH]nc(-c2ccccc2)n1-c1ccncc1 | > 100 | > 100 | > 100 | > 100 | > 100 | > 100 | > 100 | > 100 | > 100 | – | > 100 | > 100 | > 100 | > 100 | > 100 | > 100 | > 100 | > 100 | – | –
17 | CCOC(=O)C1(Cc2ccccc2)C=CN(C(=O)c2ccccc2)C=C1 | 88.9 | > 100 | > 100 | 65.2 | > 100 | 74.3 | > 100 | 73.6 | 67.5 | 72.9 | > 100 | 37.5 | 51.1 | 64.2 | 80 | 76 | > 100 | > 100 | – | –
18 | Ic1ccc2c(c1)N(c1ccccc1)c1cc(N=c3ccc4nc5ccc(I)cc5n(-c5ccccc5)c-4c3)ccc1N2 | > 100 | > 100 | > 100 | > 100 | > 100 | > 100 | > 100 | > 100 | > 100 | > 100 | > 100 | 71.5 | > 100 | > 100 | > 100 | 69 | > 100 | > 100 | – | –
19 | COc1ccccc1N(CN1C(=O)CCC1C(=O)O)C(C)=O (stereo not drawn) | > 100 | > 100 | > 100 | > 100 | > 100 | > 100 | > 100 | > 100 | > 100 | > 100 | > 100 | > 100 | > 100 | > 100 | > 100 | > 100 | > 100 | > 100 | – | –
20 | CC(C)(C)OC(=O)CN1C(=O)CC1CC(=O)c1ccccc1 (stereo not drawn) | 31.9 | 36.8 | 63.2 | 42.2 | 32.2 | 64 | 35.7 | 25.3 | 19.1 | 41.3 | 31.6 | 49.6 | 35.2 | – | > 100 | 33.7 | 34.2 | 51.1 | – | –
21 | CC(C)NC(NC(C)C)=C(S(=O)(=O)C(F)(F)C(F)(F)C(F)(F)C(F)(F)F)S(=O)(=O)C(F)(F)C(F)(F)C(F)(F)C(F)(F)F | > 100 | > 100 | > 100 | > 100 | > 100 | > 100 | > 100 | > 100 | > 100 | > 100 | > 100 | > 100 | > 100 | > 100 | > 100 | > 100 | > 100 | > 100 | – | –
22 | CCC/C=C/c1cc2c(cc1O)CC[C@@H]1[C@@H]2CC[C@]2(C)[C@@H](O)CC[C@@H]12 | 30.3 | 35.1 | 38.8 | 28.3 | 49.4 | 31.8 | 41.2 | 42.5 | 45.7 | 29 | 37.4 | 36.5 | 30.8 | 34.6 | 40.8 | 35.5 | 34.2 | 32.4 | 18.7 | 17.1
